Where a name gives a salt, the structure may show the parent alone. Read-outs that look alike come from different tables or passages of the source.
Columns and labels:
[1] = system: HCT116 colon cancer cells; assay: Cytotoxicity against HCT116 colon cancer cells; format: cell-based, human; settings: for IC50: 48 h; for HCT116 SI (selectivity index): IC50 CRL1790 / IC50 HCT116
Method: (§1) The culture medium was supplemented with 10% heat-inactivated fetal bovine serum (FBS) and 1% penicillin–streptomycin antibiotics. The time of the bioassays was 48 h. The determinations were undertaken in triplicate on three different occasions.

HT29 colon cancer cells = assay: Cytotoxicity against HT29 colon cancer cells; format: cell-based, human; settings: for IC50: 48 h; for HT29 SI (selectivity index): IC50 CRL1790 / IC50 HT29
Method: as §1

[2] = system: CRL1790 non-malignant colon cells; assay: Cytotoxicity against CRL1790 non-malignant colon cells; format: cell-based; settings: Homo sapiens, 48 h
Method: as §1

[3] = system: HCT116 and HT29 colon cancer cells; assay: Average over HCT116 and HT29 colon cancer cells; format: cell-based, human; settings: for IC50: Homo sapiens, average of HCT116 and HT29, unit printed only for the single cell-line columns; for Average SI: average of SI for HCT116 and HT29; for PSE (potency-selectivity expression): reciprocal of average IC50 x average SI x 100, colon cells
Method: as §1

[4] = system: Ca9-22 squamous cell carcinoma cells; assay: MTT cytotoxicity against Ca9-22 squamous cell carcinoma; format: cell-based, human; settings: for CC50: Homo sapiens, read-out: Ca9-22 CC50; for Ca9-22 SI: average CC50 HGF/HPLF/HPC divided by CC50 Ca9-22
Method: (§2) The method for evaluating 2a–f and 3a–e against human oral squamous cell carcinoma (OSCC) cell lines (Ca9-22, HSC-2, HSC-3, HSC-4) and human non-malignant oral cells [human gingival fibroblast (HGF), human periodontal ligament fibroblast (HPLF), and human pulp cell (HPC)] have been reported previously, except the length of time of this bioassay was extended from 24 h to 48 h. In brief, different quantities of the compounds were incubated with the cells in Dulbecco’s modified eagle medium (DMEM), which was supplemented with 10% FBS and antibiotics. The cell viability was determined by the 3-(4,5-dimethylthiazol-2-yl)-2,5-diphenyl-2H-tetrazolium bromide (MTT) method as summarized previously (Figure 4).

[5] = system: HSC-2 squamous cell carcinoma cells; assay: MTT cytotoxicity against HSC-2 squamous cell carcinoma; format: cell-based, human; settings: for CC50: Homo sapiens, read-out: HSC-2 CC50; for HSC-2 SI: average CC50 HGF/HPLF/HPC divided by CC50 HSC-2
Method: as §2

[6] = system: HSC-3 squamous cell carcinoma cells; assay: MTT cytotoxicity against HSC-3 squamous cell carcinoma; format: cell-based, human; settings: for CC50: Homo sapiens, read-out: HSC-3 CC50; for HSC-3 SI: average CC50 HGF/HPLF/HPC divided by CC50 HSC-3
Method: as §2

[7] = system: HSC-4 squamous cell carcinoma cells; assay: MTT cytotoxicity against HSC-4 squamous cell carcinoma; format: cell-based, human; settings: for CC50: Homo sapiens, read-out: HSC-4 CC50; for HSC-4 SI: average CC50 HGF/HPLF/HPC divided by CC50 HSC-4
Method: as §2

[8] = system: Ca9-22, HSC-2, HSC-3, and HSC-4 squamous cell carcinoma cell lines; assay: Average over Ca9-22, HSC-2, HSC-3 and HSC-4 OSCC cell lines; format: cell-based, human; settings: for CC50: read-out: Average CC50; for Average SI: average of SI for four OSCC cell lines; for PSE (potency-selectivity expression): reciprocal of average CC50 (OSCC) x average SI x 100
Method: as §2

[9] = MTT cytotoxicity against human gingival fibroblast (HGF); format: cell-based; settings: human, human gingival fibroblasts (HGF), non-malignant oral cells
Method: as §2

[10] = MTT cytotoxicity against human periodontal ligament fibroblast (HPLF); format: cell-based; settings: human, human periodontal ligament fibroblasts (HPLF), non-malignant oral cells
Method: as §2

[11] = MTT cytotoxicity against human pulp cell (HPC); format: cell-based; settings: human, human pulp cells (HPC), non-malignant oral cells
Method: as §2

[12] = Average over HGF, HPLF and HPC non-malignant oral cells; format: cell-based, human; settings: human, HPLF and HPC non-malignant oral cells (average), average of HGF
Method: as §2

CEM cells = assay: Differential DNA staining (DNS) cytotoxicity assay, CEM cells; format: cell-based; settings: Homo sapiens, CCRF-CEM
Method: (§3) The method used for generating the data of human acute lymphocytic leukemia (CEM) and human acute promyelocytic leukemia (HL-60) cells in Table 4 has been described previously. In brief, the cells were cultured in media supplemented with 10% FBS and antibiotics. […] The CC50 values of the compounds listed in Table 4 were obtained by linear interpolation equations [28, 29].

HL-60 cells = assay: Differential DNA staining (DNS) cytotoxicity assay, HL-60 cells; format: cell-based; settings: Homo sapiens
Method: as §3

[13] = Homo sapiens, average of four OSCC cell lines
[14] = average of four OSCC cell lines
[15] = 24 h, read-out: CC50 CEM Cells 24 h
[16] = 48 h, read-out: CC50 CEM Cells 48 h
[17] = HL-60, 24 h, read-out: CC50 HL-60 Cells 24 h
[18] = HL-60, 48 h, read-out: CC50 HL-60 Cells 48 h

| SMILES | HCT116 SI (selectivity index) [1] | HT29 SI (selectivity index) (HT29 colon cancer cells) | IC50 [2] | IC50 [3] | Average SI [3] | PSE (potency-selectivity expression) [3] | CC50 ([4]; Ca9-22, 48 h, MTT) | Ca9-22 SI [4] | CC50 ([5]; HSC-2, 48 h, MTT) | HSC-2 SI [5] | CC50 ([6]; HSC-3, 48 h, MTT) | HSC-3 SI [6] | CC50 ([7]; HSC-4, 48 h, MTT) | HSC-4 SI [7] | CC50 [8, 13] | Average SI [8] | CC50 at 48 h [9] | CC50 at 48 h [10] | CC50 at 48 h [11] | CC50 at 48 h [12] | further results |
| --- | --- | --- | --- | --- | --- | --- | --- | --- | --- | --- | --- | --- | --- | --- | --- | --- | --- | --- | --- | --- | --- |
| O=c1[nH]cc(F)c(=O)[nH]1 [Compound 5-FU, 5-fluorouracil, reference compound] | 4.97 | 1.22 | 17.6 ± 0.82 µM | 8970 nM | 3.10 | 34.6 | 141000 nM | >7.09 | 359000 nM | >2.79 | 450000 nM | >2.22 | 7800 nM | >128 | > 240000 nM | >35.0 | > 1000 µM | > 1000 µM | > 1000 µM | > 1000 µM | IC50 ([1]; Homo sapiens, HCT-116, 48 h): 3.54 ± 0.72 µM; IC50 (HT29 colon cancer cells; Homo sapiens, HT-29, 48 h): 14400 ± 650 nM |
| Cc1ccc(/C=C2\CNC/C(=C\c3ccc(O)c(CN4CCN(C)CC4)c3)C2=O)cc1 [Compound 3d] | 5.78 | 31.8 | 22.6 ± 0.59 µM | 2310 nM | 18.8 | 814 | 1300 nM | 7.85 | 2200 nM | 4.64 | 1910 nM | 5.34 | 2290 nM | 4.45 | 1930 nM | 5.57 | 14.6 µM | 10.1 µM | 6 µM | 10.2 µM | IC50 ([1]; Homo sapiens, HCT-116, 48 h): 3.91 ± 1.69 µM; IC50 (HT29 colon cancer cells; Homo sapiens, HT-29, 48 h): 710 ± 290 nM |
| N[C@@H](Cc1ccc(N(CCCl)CCCl)cc1)C(=O)O [MPN, melphalan, reference compound] | – | – | – | – | – | – | – | >4.68 | – | >11.8 | – | >9.62 | – | >19.2 | – | >11.3 | > 200 µM | > 200 µM | > 200 µM | > 200 µM | CC50 ([4]; Ca9-22, 48 h): 42700 nM; CC50 ([5]; HSC-2, 48 h): 17000 nM; CC50 ([6]; HSC-3, 48 h): 20800 nM; CC50 ([7]; HSC-4, 48 h): 10400 nM; CC50 ([8]; Homo sapiens): 22700 nM |
| COc1ccc(/C=C2\CNC/C(=C\c3ccc(O)c(CN4CCN(C)CC4)c3)C2=O)cc1 [Compound 3c] | 12.7 | 17.4 | 13.2 ± 0.36 µM | 900 nM | 15.1 | 1678 | 660 nM | 8.33 | 1100 nM | 5.00 | 1050 nM | 5.24 | 1180 nM | 4.66 | 1000 nM | 5.81 | 8.8 µM | 4.9 µM | 2.8 µM | 5.5 µM | IC50 ([1]; Homo sapiens, HCT-116, 48 h): 1.04 ± 0.48 µM; IC50 (HT29 colon cancer cells; Homo sapiens, HT-29, 48 h): 760 ± 260 nM |
| COc1ccc(/C=C2\CNC/C(=C\c3ccc(O)c(CN4CCOCC4)c3)C2=O)cc1OC [Compound 2e, 3-[3-(4-Morpholinomethyl)-4-hydroxybenzylidene]-5-(3,4-dimethoxybenzylidene)-4-piperidone dihydrochloride] | 8.13 | 7.31 | 27.4 ± 0.42 µM | 3560 nM | 7.72 | 217 | 41800 nM | >4.79 | 88500 nM | >2.26 | 73200 nM | >2.73 | – | – | 69300 nM | 3.12 | > 200 µM | > 200 µM | > 200 µM | > 200 µM | IC50 ([1]; Homo sapiens, HCT-116, 48 h): 3.37 ± 0.68 µM; IC50 (HT29 colon cancer cells; Homo sapiens, HT-29, 48 h): 3750 ± 780 nM |
| COc1cccc2c1C(=O)c1c(O)c3c(c(O)c1C2=O)C[C@@](O)(C(=O)CO)C[C@@H]3O[C@H]1C[C@H](N)[C@H](O)[C@H](C)O1 [DXR, doxorubicin, reference compound] | – | – | – | – | – | – | 330 nM | >30.3 | 200 nM | >50.0 | 240 nM | >41.7 | 140 nM | >71.4 | 230 nM | >48.4 | > 10 µM | > 10 µM | > 10 µM | > 10 µM | – |
| CN1CCN(Cc2cc(/C=C3\CNC/C(=C\c4ccc(F)cc4)C3=O)ccc2O)CC1 [Compound 3b] | 45.0 | 48.5 | 12.6 ± 0.24 µM | 270 nM | 46.8 | 17,333 | 550 nM | 18.4 | 910 nM | 11.1 | 950 nM | 10.6 | 1140 nM | 8.86 | < 1000 nM | – | 18.5 µM | 7.4 µM | 4.3 µM | 10.1 µM | CC50 [8, 14]: 890 nM; PSE (potency-selectivity expression) [8]: > 1000; CC50 (CEM cells; [15]): 3.15 ± 1.29 µM; CC50 (CEM cells; [16]): 0.4 ± 0.03 µM; CC50 (HL-60 cells; [17]): 5.9 ± 0.76 µM; CC50 (HL-60 cells; [18]): 2.65 ± 0.43 µM |
| COc1ccc(/C=C2\CNC/C(=C\c3ccc(O)c(CN4CCCCC4)c3)C2=O)cc1OC [Compound 2d, 3-[3-(1-Piperidinylmethyl)-4-hydroxybenzylidene]-5-(3,4-dimethoxybenzylidene)-4-piperidone dihydrochloride] | – | 43.5 | 23.5 ± 0.26 µM | 500 nM | 47.9 | 9580 | 420 nM | <8.98 | 610 nM | <6.18 | 390 nM | <9.67 | 750 nM | – | < 1000 nM | 7.47 | 7 µM | 2.7 µM | < 1.6 µM | < 3.77 µM | IC50 (HT29 colon cancer cells): 540 ± 170 nM; IC50 (HT29 colon cancer cells; Homo sapiens, HT-29, 48 h): < 1000 nM; CC50 [8, 14]: 540 nM; PSE (potency-selectivity expression) [8]: > 1000 |
| COc1ccc(/C=C2\CNC/C(=C\c3ccc(O)c(CN4CCN(C)CC4)c3)C2=O)cc1OC [Compound 2f, 3-[3-(4-Methyl-1-piperazinylmethyl)-4-hydroxybenzylidene]-5-(3,4-dimethoxybenzylidene)-4-piperidone trihydrochloride] | 18.7 | 16.7 | 12.7 ± 0.31 µM | 720 nM | 17.7 | 2458 | 1940 nM | 8.81 | 2800 nM | 6.11 | 2470 nM | 6.92 | 2730 nM | 6.26 | 2490 nM | 7.03 | 33.1 µM | 12 µM | 6.1 µM | 17.1 µM | IC50 [1]: 0.68 ± 0.31 µM; IC50 ([1]; Homo sapiens, HCT-116, 48 h): < 1 µM; IC50 (HT29 colon cancer cells): 760 ± 300 nM; IC50 (HT29 colon cancer cells; Homo sapiens, HT-29, 48 h): < 1000 nM; CC50 (CEM cells; [15]): 8.91 ± 1.32 µM; CC50 (CEM cells; [16]): 2.89 ± 0.2 µM; CC50 (HL-60 cells; [17]): 3.75 ± 1.07 µM; CC50 (HL-60 cells; [18]): 2.73 ± 0.57 µM |
